Data from patent US10874669B2 (WAYNE STATE UNIVERSITY, priority 2018, dated 2020).

Legend:
[1] = molecular target: cloned D2L receptors (Rattus norvegicus (Rat), UniProt P61169); experiment: [3H]spiperone displacement, cloned D2L receptors in HEK cells; format: binding; conditions: means±SEM for 3 experiments
From the text: The following table provides inhibition constants for displacing [3H]spiperone binding to the cloned D2L and D3 receptors expressed in HEK cells. […] NR=Not repeated.

[2] = molecular target: cloned D3 receptors (Rattus norvegicus (Rat), UniProt P19020); experiment: [3H]spiperone displacement, cloned D3 receptors in HEK cells; format: binding; conditions: means±SEM for 3 experiments
cloned D3 receptors, sequence (P19020 whole entry): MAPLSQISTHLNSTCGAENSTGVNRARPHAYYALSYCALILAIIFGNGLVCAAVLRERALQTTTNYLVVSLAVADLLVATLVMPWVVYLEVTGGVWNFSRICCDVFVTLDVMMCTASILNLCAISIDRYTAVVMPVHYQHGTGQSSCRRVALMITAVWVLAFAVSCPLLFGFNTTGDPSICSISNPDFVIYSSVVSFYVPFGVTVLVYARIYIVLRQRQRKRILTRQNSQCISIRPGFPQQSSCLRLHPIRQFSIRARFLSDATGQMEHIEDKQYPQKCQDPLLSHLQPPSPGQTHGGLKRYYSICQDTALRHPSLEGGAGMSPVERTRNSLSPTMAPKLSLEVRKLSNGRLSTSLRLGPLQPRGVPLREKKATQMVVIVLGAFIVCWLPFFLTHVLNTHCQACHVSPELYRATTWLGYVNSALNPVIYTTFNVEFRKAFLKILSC
From the text: The following table provides inhibition constants for displacing [3H]spiperone binding to the cloned D2L and D3 receptors expressed in HEK cells. Results are means±SEM for 3 experiments each performed in triplicate. NR=Not repeated.

cloned D2L receptors, sequence (P61169 whole entry): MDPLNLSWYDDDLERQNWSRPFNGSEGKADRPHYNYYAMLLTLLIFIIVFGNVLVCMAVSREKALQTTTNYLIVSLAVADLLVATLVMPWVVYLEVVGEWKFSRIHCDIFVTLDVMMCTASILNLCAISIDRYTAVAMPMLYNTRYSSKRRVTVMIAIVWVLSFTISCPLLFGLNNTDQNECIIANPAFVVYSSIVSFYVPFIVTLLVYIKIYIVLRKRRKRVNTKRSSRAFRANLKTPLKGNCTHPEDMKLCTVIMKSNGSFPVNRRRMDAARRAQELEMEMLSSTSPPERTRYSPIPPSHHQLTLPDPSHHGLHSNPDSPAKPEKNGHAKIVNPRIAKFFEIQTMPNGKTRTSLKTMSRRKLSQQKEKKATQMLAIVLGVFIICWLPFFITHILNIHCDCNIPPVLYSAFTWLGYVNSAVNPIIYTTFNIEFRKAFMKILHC

Ki [1] [nM]	Ki [2] [nM]	SMILES
68.3 ± 12	1.57 ± 0.41	CCCN(CCCCCc1ccc(O)c(OC)c1)[C@@H]1CCc2nc(N)sc2C1 [(−)-23, (R)-4-(5-((2-Amino-4,5,6,7-tetrahydrobenzo[d]thiazol-6-yl)(propyl)amino)pentyl)-2-methoxyphenol]
65.7 ± 11.7	1.42 ± 0.14	CCCN(CCCCCc1ccc(O)c(O)c1)[C@@H]1CCc2nc(N)sc2C1 [(−)-34, (R)-4-(5-((2-Amino-4,5,6,7-tetrahydrobenzo[d]thiazol-6-yl)(propyl)amino)pentyl)benzene-1,2-diol]
2400	15.8 ± 2	CCCN(CCCc1ccc(O)c(OC)c1)C1CCc2nc(N)sc2C1 (stereo not drawn) [Compound 22, 4-(3-((2-Amino-4,5,6,7-tetrahydrobenzo[d]thiazol-6-yl)(propyl)amino)propyl)-2-methoxyphenol]
175 ± 8		CCCN(CCCCCc1ccc(O)c(OC)c1)C1CCc2nc(N)sc2C1 (stereo not drawn) [Compound 23, 4-(5-((2-Amino-4,5,6,7-tetrahydrobenzo[d]thiazol-6-yl)(propyl)amino)pentyl)-2-methoxyphenol]
116 ± 8	2.59 ± 0.31	CCCN(CCCCCc1ccc(O)c(O)c1)C1CCc2nc(N)sc2C1 (stereo not drawn) [Compound 34, 4-(5-((2-Amino-4,5,6,7-tetrahydrobenzo[d]thiazol-6-yl)(propyl)amino)pentyl)benzene-1,2-diol]
233 ± 8	23.3 ± 4	CCCN(CCC/C=C\c1ccc(O)c(OC)c1)C1CCc2nc(N)sc2C1 (stereo not drawn) [Compound 39, (Z)-4-(5-((2-amino-4,5,6,7-tetrahydrobenzo[d]thiazol-6-yl)(propyl)amino)pent-1-en-1-yl)-2-methoxyphenol]
4630	39.1 ± 5.4	CCCN(C/C=C/c1ccc(O)c(OC)c1)C1CCc2nc(N)sc2C1 (stereo not drawn) [Compound 63, (E)-4-(3-((2-amino-4,5,6,7-tetrahydrobenzo[d]thiazol-6-yl)(propyl)amino)prop-1-en-1-yl)-2-methoxyphenol]
162 ± 7	14.2 ± 3.8	CCCN(CCN1CCN(c2ccc3c(c2)C(=O)C(=O)N3)CC1)[C@H]1CCc2nc(N)sc2C1 [Compound 70]
